Measured values reported in patent US8017607B2, “N-substituted-pyrrolidines as inhibitors of MDM2-P-53 interactions” (Hoffmann-La Roche Inc., priority 2009, dated 2011).

Each compound was assayed against interaction between p53 and MDM2 proteins (recombinant GST-tagged MDM2, biotinylated p53 peptide) (Homo sapiens, UniProt Q00987) (assay: HTRF assay of inhibition of the p53-MDM2 interaction). Conditions: bsa: 0.02%.
Type: binding
Method: The ability of the compounds to inhibit the interaction between p53 and MDM2 proteins was measured by an HTRF (homogeneous time-resolved fluorescence) assay in which recombinant GST-tagged MDM2 binds to a peptide that resembles the MDM2-interacting region of p53 (Lane et al.). Binding of GST-MDM2 protein and p53-peptide (biotinylated on its N-terminal end) is registered by the FRET (fluorescence resonance energy transfer) between Europium (Eu)-labeled anti-GST antibody and streptavidin-conjugated Allophycocyanin (APC).
[…] Add 10 uL diluted compounds (1:5 dilution in reaction buffer) to each well, mix by shaking. Add 20 uL biotinylated p53 peptide (180 nM working solution) in reaction buffer to each well and mix on shaker. Incubate at 37° C. for 1 h. Add 20 uL streptavidin-APC and Eu-anti-GST antibody mixture (6 nM Eu-anti-GST and 60 nM streptavidin-APC working solution) in TBS buffer with 0.2% BSA, shake at room temperature for 30 minutes and read using a TRF-capable plate reader at 665 and 615 nm (Victor 5, Perkin ElmerWallac). If not specified, the reagents were purchased from Sigma Chemical Co.

Chain of interaction between p53 and MDM2 proteins (recombinant GST-tagged MDM2, biotinylated p53 peptide) (Q00987 whole entry): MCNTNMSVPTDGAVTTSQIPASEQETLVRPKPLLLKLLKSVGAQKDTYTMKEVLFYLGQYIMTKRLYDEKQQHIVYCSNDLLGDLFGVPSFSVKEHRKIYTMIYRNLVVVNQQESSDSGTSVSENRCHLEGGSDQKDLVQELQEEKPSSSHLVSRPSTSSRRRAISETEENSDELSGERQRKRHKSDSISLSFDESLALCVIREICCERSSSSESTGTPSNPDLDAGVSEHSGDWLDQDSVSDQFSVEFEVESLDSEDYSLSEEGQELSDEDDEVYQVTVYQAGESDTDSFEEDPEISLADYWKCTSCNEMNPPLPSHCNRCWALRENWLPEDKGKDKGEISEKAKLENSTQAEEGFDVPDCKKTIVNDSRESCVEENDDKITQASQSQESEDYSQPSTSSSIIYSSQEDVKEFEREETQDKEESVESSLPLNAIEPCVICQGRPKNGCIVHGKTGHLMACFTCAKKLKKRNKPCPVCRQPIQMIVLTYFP

Row | SMILES | IC50 [µM]
1 | CC(C)(C)C[C@@H]1CN(C(=O)Nc2ccncc2)[C@H](c2cccc(Cl)c2F)[C@@]1(C#N)c1ccc(Cl)cc1F (racemic) [Example 48, rac-(2S,3S,4S)-2-(3-chloro-2-fluoro-phenyl)-3-(4-chloro-2-fluoro-phenyl)-3-cyano-4-(2,2-dimethyl-propyl)-pyrrolidine-1-carboxylic acid pyridin-4-ylamide] | 1.73
2 | CC(C)(C)C[C@@H]1CN(C(=O)c2ccc(C(=O)O)cc2)[C@H](c2cccc(Cl)c2F)[C@@]1(C#N)c1ccc(Cl)cc1F (racemic) [Example 12, rac-4-[(2S,3S,4S)-2-(3-chloro-2-fluoro-phenyl)-3-(4-chloro-2-fluoro-phenyl)-3-cyano-4-(2,2-dimethyl-propyl)-pyrrolidine-1-carbonyl]-benzoic acid] | 0.644
3 | CC(C)(C)C[C@@H]1CN(C(=O)NCC[C@H](O)CO)[C@H](c2cccc(Cl)c2F)[C@@]1(C#N)c1ccc(Cl)cc1F (mixture of isomers) [Example 4, rac-(2S,3S,4S)-2-(3-chloro-2-fluoro-phenyl)-3-(4-chloro-2-fluoro-phenyl)-3-cyano-4-(2,2-dimethyl-propyl)-pyrrolidine-1-carboxylic acid ((S)-3,4-dihydroxy-butyl)-amide] | 0.269
4 | CC(C)(C)C[C@@H]1CN(C(=O)Nc2cccc(-c3nnn[nH]3)c2)[C@H](c2cccc(Cl)c2F)[C@@]1(C#N)c1ccc(Cl)cc1F (racemic) [Example 16, rac-(2S,3S,4S)-2-(3-chloro-2-fluoro-phenyl)-3-(4-chloro-2-fluoro-phenyl)-3-cyano-4-(2,2-dimethyl-propyl)-pyrrolidine-1-carboxylic acid [3-(1H-tetrazol-5-yl)-phenyl]-amide] | 3.23
